Laboratory results as given in US10800792B2, “Inhibitors of Bruton's tyrosine kinase and method of their use” (JANSSEN PHARMACEUTICA NV, priority 2015, dated 2020).

target: unphosphorylated-BTK kinase domain (UP-BTK), GST-tagged human BTK (389-659aa) (Homo sapiens (Human), UniProt Q06187); experiment: BTK kinase Lanthascreen binding assay; details: Lanthascreen tracer competition, 60 minutes incubation; pIC50 = negative log of the IC50 in molar
In short: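 Measures how well compounds compete with a fluorescence-labelled tracer for binding to BTK in its unphosphorylated state. IC50 values were fitted and expressed as pIC50 (negative logarithm of the molar IC50).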

unphosphorylated-BTK kinase domain (UP-BTK), GST-tagged human BTK (389-659aa), sequence (Q06187 389-659): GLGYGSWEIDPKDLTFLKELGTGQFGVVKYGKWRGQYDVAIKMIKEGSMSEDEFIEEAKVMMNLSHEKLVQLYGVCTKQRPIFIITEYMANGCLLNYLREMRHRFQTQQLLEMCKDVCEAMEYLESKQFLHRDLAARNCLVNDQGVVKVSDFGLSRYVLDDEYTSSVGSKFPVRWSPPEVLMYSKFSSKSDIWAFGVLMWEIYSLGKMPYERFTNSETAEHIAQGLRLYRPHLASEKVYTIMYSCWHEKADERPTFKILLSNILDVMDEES

SMILES | BTK_I_binding pIC50
CC(C)(C)c1cccc(N2C(=O)Nc3c(C(=O)N[C@@H]4CCCNC4)sc4nccc2c34)c1 [Example 646, (R)-5-(3-(tert-Butyl)phenyl)-4-oxo-N-(piperidin-3-yl)-4,5-dihydro-3H-1-thia-3,5,8-triazaacenaphthylene-2-carboxamide] | <5
N#CN1CCC[C@@H](NC(=O)c2sc3nccc4c3c2NC(=O)N4c2ccc(Oc3ccccc3)cc2)C1 [Example 592, (R)—N-(1-Cyanopiperidin-3-yl)-4-oxo-5-(4-phenoxyphenyl)-4,5-dihydro-3H-1-thia-3,5,8-triazaacenaphthylene-2-carboxamide] | 7.4
CCC(=O)N1CCC(C(=O)Nc2sc3nccc4c3c2NC(=O)N4c2ccc(Oc3ccccc3)cc2C)CC1 [Example 805, N-(5-(2-Methyl-4-phenoxyphenyl)-4-oxo-4,5-dihydro-3H-1-thia-3,5,8-triazaacenaphthylen-2-yl)-1-propionylpiperidine-4-carboxamide] | 6.0
C=CC(=O)N1CCC[C@@H](NC(=O)c2sc3nccc4c3c2NC(=O)N4c2ccc(Oc3ccccn3)cc2)C1 [Example 846, (R)—N-(1-Acryloylpiperidin-3-yl)-4-oxo-5-(4-(pyridin-2-yloxy)phenyl)-4,5-dihydro-3H-1-thia-3,5,8-triazaacenaphthylene-2-carboxamide] | 7.6
O=C(N[C@@H]1CCNC1)c1sc2nccc3c2c1NC(=O)N3c1cccc(-c2ccccc2)c1 [Example 599, (R)-5-([1,1′-Biphenyl]-3-yl)-4-oxo-N-(pyrrolidin-3-yl)-4,5-dihydro-3H-1-thia-3,5,8-triazaacenaphthylene-2-carboxamide] | 6.5

same assay, conditions: Lanthascreen tracer competition, 60 minutes incubation; pIC50 = negative log of the IC50 in molar; read-out: BTK_I_binding pIC50 (converted)

SMILES | IC50 [nM]
Cc1cc(Oc2ccccc2)ccc1N1C(=O)Nc2c(C(=O)N[C@@H]3CCCN(C(=O)[C@@H]4CCCN4)C3)sc3nccc1c23 [Example 893, 5-(2-Methyl-4-phenoxyphenyl)-4-oxo-N—((R)-1-((S)-pyrrolidine-2-carbonyl)piperidin-3-yl)-4,5-dihydro-3H-1-thia-3,5,8-triazaacenaphthylene-2-carboxamide] | 100

same assay, conditions: pIC50 = negative log of the IC50 in molar; 60 minutes incubation, 50 nM Tracer 236

SMILES | BTK_I_binding pIC50
Cc1cc(Oc2ccccc2)ccc1N1C(=O)Nc2c(C(=O)N[C@H]3CN(C)CC(F)(F)C3)sc3nccc1c23 [Example 272, (R)—N-(5,5-Difluoro-1-methylpiperidin-3-yl)-5-(2-methyl-4-phenoxyphenyl)-4-oxo-4,5-dihydro-3H-1-thia-3,5,8-triazaacenaphthylene-2-carboxamide] | 6.3
N#C/C(=C\C1CC1)C(=O)N1CCC[C@@H](NC(=O)c2sc3nccc4c3c2NC(=O)N4c2c(F)cc(Oc3ccccc3)cc2F)C1 [Example 175, (R,E)-N-(1-(2-Cyano-3-cyclopropylacryloyl)piperidin-3-yl)-5-(2,6-difluoro-4-phenoxyphenyl)-4-oxo-4,5-dihydro-3H-1-thia-3,5,8-triazaacenaphthylene-2-carboxamide] | 7.6
C=CC(=O)N1CCC[C@@H](NC(=O)c2sc3nccc4c3c2NC(=O)N4c2ccc(CC)cc2C)C1 [Example 62, (R)—N-(1-Acryloylpiperidin-3-yl)-5-(4-ethyl-2-methylphenyl)-4-oxo-4,5-dihydro-3H-1-thia-3,5,8-triazaacenaphthylene-2-carboxamide] | 7.1
Cc1cc(Oc2ccccc2)ccc1N1C(=O)Nc2c(C(=O)N[C@H]3CNCC(F)(F)C3)sc3nccc1c23 [Example 174, (R)—N-(5,5-Difluoropiperidin-3-yl)-5-(2-methyl-4-phenoxyphenyl)-4-oxo-4,5-dihydro-3H-1-thia-3,5,8-triazaacenaphthylene-2-carboxamide] | 6.6
Cc1cc(Oc2ccccc2)ccc1N1C(=O)Nc2c(C(=O)N[C@@H]3CCCN(C(=O)/C=C/C(C)C)C3)sc3nccc1c23 [Example 247, (R,E)-5-(2-Methyl-4-phenoxyphenyl)-N-(1-(4-methylpent-2-enoyl)piperidin-3-yl)-4-oxo-4,5-dihydro-3H-1-thia-3,5,8-triazaacenaphthylene-2-carboxamide] | 6.5
C=CC(=O)N1CC[C@@H](NC(=O)c2sc3nccc4c3c2NC(=O)N4c2ccc(Oc3ccccc3)c(C)c2C)C1 [Example 77, (R)—N-(1-Acryloylpyrrolidin-3-yl)-5-(2,3-dimethyl-4-phenoxyphenyl)-4-oxo-4,5-dihydro-3H-1-thia-3,5,8-triazaacenaphthylene-2-carboxamide] | 6.9
COCC(C)(C)C(=O)N1CCC[C@@H](NC(=O)c2sc3nccc4c3c2NC(=O)N4c2ccc(Oc3ccccc3)cc2C)C1 [Example 188, (R)—N-(1-(3-Methoxy-2,2-dimethylpropanol)piperidin-3-yl)-5-(2-methyl-4-phenoxyphenyl)-4-oxo-4,5-dihydro-3H-1-thia-3,5,8-triazaacenaphthylene-2-carboxamide] | 6.7
COc1ccccc1Oc1ccc(N2C(=O)Nc3c(C(=O)N[C@@H]4CCCN(C)C4)sc4nccc2c34)c(C)c1 [Example 73, (R)-5-(4-(2-Methoxyphenoxy)-2-methylphenyl)-N-(1-methylpiperidin-3-yl)-4-oxo-4,5-dihydro-3H-1-thia-3,5,8-triazaacenaphthylene-2-carboxamide] | 6.8
Cc1cc(Oc2ccccc2)ccc1N1C(=O)Nc2c(C(=O)N[C@@H]3CCN(C(=O)/C=C/CO)C3)sc3nccc1c23 [Example 30, (R,E)-N-(1-(4-Hydroxybut-2-enoyl)pyrrolidin-3-yl)-5-(2-methyl-4-phenoxyphenyl)-4-oxo-4,5-dihydro-3H-1-thia-3,5,8-triazaacenaphthylene-2-carboxamide] | 7.6

same assay, conditions: pIC50 = negative log of the IC50 in molar; 60 minutes incubation, 50 nM Tracer 236; read-out: BTK_I_binding pIC50 (converted)

SMILES | IC50 [nM]
C=CC(=O)N1CCC[C@@H](NC(=O)c2sc3nccc4c3c2NC(=O)N4c2ccc(Oc3ccccc3)cc2F)C1 [Example 10, (R)—N-(1-Acryloylpiperidin-3-yl)-5-(2-fluoro-4-phenoxyphenyl)-4-oxo-4,5-dihydro-3H-1-thia-3,5,8-triazaacenaphthylene-2-carboxamide] | 7.94

same assay, conditions: unphosphorylated-BTK kinase domain, 50 nM Tracer 236, 60 minutes; pIC50 = negative log of the IC50 in molar

SMILES | BTK_I_binding pIC50
C=CC(=O)N1CC[C@@H](C(=O)Nc2sc3nccc4c3c2NC(=O)N4c2ccc(Oc3ccccc3)cc2C)C1 [Example 545, (R)-1-Acryloyl-N-(5-(2-methyl-4-phenoxyphenyl)-4-oxo-4,5-dihydro-3H-1-thia-3,5,8-triazaacenaphthylen-2-yl)pyrrolidine-3-carboxamide] | 6.9
Cc1cc(Oc2ccccc2)ccc1N1C(=O)Nc2c(C(=O)N[C@@H]3CCCN(C(=O)CN4CCOCC4)C3)sc3nccc1c23 [Example 394, (R)-5-(2-Methyl-4-phenoxyphenyl)-N-(1-(2-morpholinoacetyl)piperidin-3-yl)-4-oxo-4,5-dihydro-3H-1-thia-3,5,8-triazaacenaphthylene-2-carboxamide] | 6.8
C=CC(=O)N1CCC[C@@H](NC(=O)c2sc3nccc4c3c2NC(=O)N4Cc2ccc(Oc3ccccc3)cc2)C1 [Example 408, (R)—N-(1-Acryloylpiperidin-3-yl)-4-oxo-5-(4-phenoxybenzyl)-4,5-dihydro-3H-1-thia-3,5,8-triazaacenaphthylene-2-carboxamide] | 5.1
CCC(=O)N1CCC[C@@H](NC(=O)c2sc3nccc4c3c2NC(=O)N4c2ccc(OC(C)C)cc2)C1 [Example 406, (R)-5-(4-Isopropoxyphenyl)-4-oxo-N-(1-propionylpiperidin-3-yl)-4,5-dihydro-3H-1-thia-3,5,8-triazaacenaphthylene-2-carboxamide] | 5.2

same assay, conditions: unphosphorylated-BTK kinase domain, 50 nM Tracer 236, 60 minutes; pIC50 = negative log of the IC50 in molar; read-out: BTK_I_binding pIC50 (converted)

SMILES | IC50 [nM]
[2H]c1c([2H])c([2H])c(Oc2ccc(N3C(=O)Nc4c(C(=O)N[C@@H]5CCCN(C(=O)C=C)C5)sc5nccc3c45)c(C)c2)c([2H])c1[2H] [Example 375, (R)—N-(1-Acryloylpiperidin-3-yl)-5-(2-methyl-4-(2,3,4,5,6-pentadeuteriophenoxy)phenyl)-4-oxo-4,5-dihydro-3H-1-thia-3,5,8-triazaacenaphthylene-2-carboxamide] | 12.6
[2H]c1c([2H])c([2H])c(Oc2ccc(N3C(=O)Nc4c(C(=O)N[C@@H]5CCCN(C#N)C5)sc5nccc3c45)c(C)c2)c([2H])c1[2H] [Example 379, (R)—N-(1-Cyanopiperidin-3-yl)-5-(2-methyl-4-(2,3,4,5,6-pentadeuteriophenoxy)phenyl)-4-oxo-4,5-dihydro-3H-1-thia-3,5,8-triazaacenaphthylene-2-carboxamide] | 31.6

same assay, conditions: unphosphorylated-BTK kinase domain, 60 minutes incubation, 50 nM Tracer 236; pIC50 = negative log of the IC50 in molar

SMILES | BTK_I_binding pIC50
C=CC(=O)N1CCC[C@@H](NC(=O)c2sc3nccc4c3c2NC(=O)N4c2cccc(N(C)C)c2)C1 [Example 943, (R)—N-(1-Acryloylpiperidin-3-yl)-5-(3-(dimethylamino)phenyl)-4-oxo-4,5-dihydro-3H-1-thia-3,5,8-triazaacenaphthylene-2-carboxamide] | 5.6
C=CC(=O)N1CCC[C@@H](NC(=O)c2sc3nccc4c3c2NC(=O)N4c2ccc(Oc3cccnn3)nc2C)C1 [Example 975, (R)—N-(1-Acryloylpiperidin-3-yl)-5-(2-methyl-6-(pyridazin-3-yloxy)pyridin-3-yl)-4-oxo-4,5-dihydro-3H-1-thia-3,5,8-triazaacenaphthylene-2-carboxamide] | 5.0
O=C(N[C@@H]1CCN(C(=O)c2ccccc2)C1)c1sc2nccc3c2c1NC(=O)N3c1ccc(Oc2ccccc2)cc1 [Example 914, (R)—N-(1-Benzoylpyrrolidin-3-yl)-4-oxo-5-(4-phenoxyphenyl)-4,5-dihydro-3H-1-thia-3,5,8-triazaacenaphthylene-2-carboxamide] | 6.5
